Test results taken from patent US20260240854A1, “COMBINATIONS OF KRAS INHIBITOR AND ATR INHIBITOR FOR THE TREATMENT OF CANCER” (ASTRAZENECA AB, priority 2023, published 2026).

System: CT26^G12C murine colon carcinoma cells
Assay: Anti-tumor study, CT26^G12C tumors grown subcutaneously in immunocompetent BALB/c mice
Format: in vivo
Conditions: for Survival rate compared to the control group / Tumor return: Example 1, study end day 54
Method: All pathogen-free animals used in the studies below were housed in a controlled, pathogen-free environment with the following conditions: temperature (19-23° C.), humidity (55% 10%), photoperiod (12 h light/dark cycle), and air exchange. Animals were housed in individually vented cages, with food and water provided ad libitum.
Following testing materials were used for the preclinical, in vivo studies below: vehicle (0.5% HPMC/0.1% Tween 80), AZD4625 (0.5% HPMC/0.1% Tween 80), Compound of Formula IV (0.5% HPMC/0.1% Tween 80) and AZD6738 (10% DMSO/40% PG/50% WFI). For the monotherapies, the vehicle and the inhibitors were dosed orally in a volume of 0.05-0.1 mL/10 g. For the combination therapies, AZD4625 or Compound of Formula IV were dosed 4 or 2 hours after the AM dose of AZD6738.
Tumors were measured three times a week by caliper and the volumes were calculated using elliptical formula (pi/6×width×width×length). Animal bodyweight and tumor condition were also recorded for the duration of the study. Subject mice remained on study until tumor size reached 1.5 cm^3 for anti-tumor studies and 0.7 cm^3 for the rechallenge study, clinical signs were observed, or until the study end date.
(§1) For the study, CT26^G12C murine colon carcinoma cells, engineered to express the KRAS^G12C mutation, were grown subcutaneously in BALB/c mice with an intact immune system. To prepare the subject mice, 5×10^5 and 5×10^4 CT26^G12C (G12C clone P5E6) cells were implanted subcutaneously into the right flank of female BALB/c mice (Envigo UK, Strain ID: HSD-162) or female nude-Foxn1nu mice (Envigo UK, Strain ID: HSD-069), respectively. Once a mean volume of approximately 0.2 cm^3 tumor formed, subject mice were randomized into relevant treatment and control groups and treated with vehicle control, AZD4625 or AZD6738 in monotherapy, or in combination therapy for 4 weeks. AZD4625 was dosed daily and AZD6738 was dosed twice daily on a 7 day-on, 7 day-off schedules for the treatment period (FIG. 1A). Tumor growth and bodyweights of animals were monitored during and post-treatment. Subject mice remained on study until tumor size reached 1.5 cm^3, clinical signs were observed, or to the study end date (day 54).
as §1, with “vehicle control, AZD4625, Compound of Formula IV, or AZD6738” for “vehicle control, AZD4625 or AZD6738”, “monotherapy, or AZD4625 and AZD6738 or Compound of Formula IV and AZD6738 in combination” for “monotherapy, or in combination”, “weeks. AZD4625 and Compound of Formula IV were dosed daily” for “weeks. AZD4625 was dosed daily”, “period (FIG. 2A). Tumor growth” for “period (FIG. 1A). Tumor growth”, “study end date. Mice in the AZD4625 monotherapy and combination groups were monitored up to 65 days post-implant while mice in the Compound of Formula IV monotherapy and combination groups were monitored up to 119 days post-implant.” for “study end date (day 54).”
CT26^G12C murine colon carcinoma cells were grown subcutaneously in BALB/c mice with an intact immune system as described in Examples 1 and 2. […] Tumor growth and body weights of animals were monitored during and post-treatment. Subject mice remained on study until tumor size reached 1.5 cm^3, clinical signs were observed, or to the study end.

[1] = Example 5, 4 weeks treatment, compared to vehicle or to KRAS^G12C inhibitor monotherapy, FIG. 5A
[2] = Example 1, 4 weeks oral treatment, compared to control group, FIG. 1B
[3] = Example 2, 4 weeks oral treatment, FIG. 2B

Row | SMILES | Tumor return after drug cessation (Example 5) | Tumor growth response [1] | Survival rates (Example 5, FIG. 5B) | Tumor growth response [2] | Survival rate compared to the control group | Tumor return | Tumor growth response [3] | Tumors returned after drug cessation (Example 2, monitored up to 119 days post-implant)
1 | C=CC(=O)N1CCN(c2nc(=O)n(-c3c(C)ccnc3C(C)C)c3nc(-c4c(O)cccc4F)c(F)cc23)[C@@H](C)C1 (atropisomer, axis not shown) [sotorasib, reference compound] | most tumors returning after drug cessation | initial tumor growth delay | increased survival rates |  |  |  |  | 
2 | C=CC(=O)N1C[C@@H]2CCOc3c(Cl)c(-c4c(O)cccc4F)c(F)c4ncnc(c34)N2C[C@H]1C [AZD4625, 1-[(6aS,9R)-3-chloro-1-fluoro-2-(2-fluoro-6-hydroxyphenyl)-9-methyl-5,6,6a,7,9,10-hexahydro-8H-pyrazino[1′,2′:5,6][1,5]oxazocino[4,3,2-de]quinazolin-8-yl]prop-2-en-1-one] |  |  |  | delayed tumor growth | extended survival rate | most tumors ultimately returned | tumor regression | 
3 | C[C@@H]1COCCN1c1cc(C2([S@](C)(=N)=O)CC2)nc(-c2ccnc3[nH]ccc23)n1 [AZD6738, 4-{4-[(3R)-3-methylmorpholin-4-yl]-6-[1-((R)—S-methylsulfonimidoyl)cyclopropyl]pyrimidin-2-yl}-1H-pyrrolo[2,3-b]pyridine] |  | no or weak activity |  | delayed tumor growth | extended survival rate | most tumors ultimately returned |  | 
4 | C=CC(=O)N1CCN2Cc3cc(C#CC)c(-c4c(O)cccc4Cl)c(F)c3OC[C@H]2C1 [Compound of Formula IV, 1-[(12aR)-9-(2-chloro-6-hydroxyphenyl)-10-fluoro-8-(prop-1-yn-1-yl)-3,4,12,12a-tetrahydro-6H-pyrazino[2,1-c][1,4]benzoxazepin-2(1H)-yl]prop-2-en-1-one] |  |  |  |  |  |  | tumor regression | 8 out of 9
